The source of these data is patent US11753407B2, “Compounds for treating spinal muscular atrophy” (PTC Therapeutics, Inc., priority 2012, dated 2023).

SMILES strings stand for the structures.

Assay [1] has as its system Smn protein in SMA patient fibroblast cells (GM03813). Description: Smn protein assay in cultured cells (SMN HTRF). The following applies: SMA patient fibroblast cells, 48 hours; for EC1.5x for Smn protein expression: 7-point concentration curve, SMN HTRF, concentration producing 1.5 times Smn protein vs DMSO vehicle control; for maximum fold (Fold) increase of Smn protein: 7-point concentration data, fold relative to vehicle control. The format is cell-based, human. The gist of the method: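 Cells were cultured 72 h, seeded at 5,000/well and dosed with seven concentrations (3.16-fold apart) for 48 h. HTRF on lysates, read at 665 and 620 nm, gave blank-corrected ΔF values relative to DMSO. Potency is reported as EC1.5×, efficacy as maximal fold Smn increase.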

Assay [2] deals with SMN2 minigene mRNA (SMN2-A minigene) in HEK293H cells. Description: SMN2 minigene mRNA splicing RT-qPCR assay in cultured cells. The assay is classed as cell-based, human. The following applies: Homo sapiens, HEK293-H; concentration increasing full length SMN2 mRNA 1.5-fold relative to vehicle-treated cells; HEK293H cells with SMN2-A minigene, 24 hours, 7-point concentration data; read-out: EC1.5x for production of full length SMN2 mRNA. The gist of the method:
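EC1.5× values derive from a 24 h treatment of SMN2-A minigene HEK293H cells and GAPDH-normalized RT-qPCR of exon 7-included minigene mRNA relative to vehicle-treated cells.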
On the technique in general: Quantitative PCR measures a nucleic acid by following its amplification.

For the compound `CCN1CC=C(c2ccc3nc(-c4cc5cnc(C)cn5n4)cc(=O)n3c2)CC1` [Compound 485, 7-(1-ethyl-1,2,3,6-tetrahydropyridin-4-yl)-2-(6-methylpyrazolo[1,5-a]pyrazin-2-yl)-4H-pyrido[1,2-a]pyrimidin-4-one], in assay [1], the “EC1.5x for Smn protein expression” value was “**** (an EC1.5x≤0.3 μM is indicated by four stars (****))” and the “maximum fold (Fold) increase of Smn protein” value (“maximum fold (Fold) increase” below) is listed as “***** (a fold increase >1.65 is indicated by five stars (*****))”. For the same compound, the EC (1.5-fold increase) in assay [2] is below 0.1 µM.
The matching figures for `Cc1cn2nc(-c3cc(=O)n4cc(N5CCCNCC5)ccc4n3)cc2c(C)n1` [Compound 132, 7-(1,4-diazepan-1-yl)-2-(4,6-dimethylpyrazolo[1,5-a]pyrazin-2-yl)-4H-pyrido[1,2-a]pyrimidin-4-one]: “**** (an EC1.5x≤0.3 μM is indicated by four stars (****))”, “***** (a fold increase >1.65 is indicated by five stars (*****))” and below 0.1 µM.
Consider `Cc1nc2cc(-c3cc(=O)n4cc(N5C[C@H]6CNC[C@H]6C5)ccc4n3)ccc2s1` [Compound 349, 7-[(3aR,6aS)-hexahydropyrrolo[3,4-c]pyrrol-2(1H)-yl]-2-(2-methyl-1,3-benzothiazol-5-yl)-4H-pyrido[1,2-a]pyrimidin-4-one], for which, in assay [1], the “EC1.5x for Smn protein expression” value was “** (an EC1.5× between >1 μM and ≤3 μM is indicated by two stars (**))”; the “maximum fold (Fold) increase” value was “*** (a fold increase between >1.35 and ≤1.5 is indicated by three stars (***))”. Besides, the EC (1.5-fold increase) in assay [2] was below 0.1 µM.
Regarding `Cc1cn2cc(-c3cc(=O)n4cc(N5CC[C@@H](N(C)C)C5)ccc4n3)cc(C)c2n1` [Compound 827, 7-[(3R)-3-(dimethylamino)pyrrolidin-1-yl]-2-(2,8-dimethylimidazo[1,2-a]pyridin-6-yl)-4H-pyrido[1,2-a]pyrimidin-4-one], in assay [1], the “EC1.5x for Smn protein expression” value was “*** (an EC1.5× between >0.3 μM and ≤1 μM is indicated by three stars (***))”; the “maximum fold (Fold) increase” value is “***** (a fold increase >1.65 is indicated by five stars (*****))”. Further, the EC (1.5-fold increase) in assay [2] was below 0.1 µM.
As for `O=c1cc(-c2cc(F)c(O)c(F)c2)nc2ccc(N3CCNCC3)cn12` [Compound 71, 2-(3,5-difluoro-4-hydroxyphenyl)-7-(piperazin-1-yl)-4H-pyrido[1,2-a]pyrimidin-4-one], in assay [1], the “EC1.5x for Smn protein expression” value is “* (An EC1.5× for Smn protein expression between >3 μM and ≤10 μM is indicated by one star (*))”; the “maximum fold (Fold) increase” value is “**** (a fold increase between >1.5 and ≤1.65 is indicated by four stars (****))”. The EC (1.5-fold increase) in assay [2] lay within 1 to 3 µM.
As to `CCc1nc(C)cn2nc(-c3cc(=O)n4cc(OCCN5CCCCC5)ccc4n3)cc12` [Compound 832, 2-(4-ethyl-6-methylpyrazolo[1,5-a]pyrazin-2-yl)-7-[2-(piperidin-1-yl)ethoxy]-4H-pyrido[1,2-a]pyrimidin-4-one], in assay [1], the “EC1.5x for Smn protein expression” value is “*** (an EC1.5× between >0.3 μM and ≤1 μM is indicated by three stars (***))”; the “maximum fold (Fold) increase” value is given as “***** (a fold increase >1.65 is indicated by five stars (*****))”. Further, the EC (1.5-fold increase) in assay [2] was 0.1 to 0.3 µM.
In the case of `CC(C)N1CCC(c2ccc3nc(-c4ccc5nn(C)cc5c4)cc(=O)n3c2)CC1` [Compound 608, 2-(2-methyl-2H-indazol-5-yl)-7-[1-(propan-2-yl)piperidin-4-yl]-4H-pyrido[1,2-a]pyrimidin-4-one], in assay [1], the “EC1.5x for Smn protein expression” value was “** (an EC1.5× between >1 μM and ≤3 μM is indicated by two stars (**))”; the “maximum fold (Fold) increase” value was “**** (a fold increase between >1.5 and ≤1.65 is indicated by four stars (****))”. The EC (1.5-fold increase) in assay [2] was 0.1 to 0.3 µM.
Consider `CCc1nc(C)cn2nc(-c3cc(=O)n4cc(OCCCN(C)C)ccc4n3)cc12` [Compound 834, 7-[3-(dimethylamino)propoxy]-2-(4-ethyl-6-methylpyrazolo[1,5-a]pyrazin-2-yl)-4H-pyrido[1,2-a]pyrimidin-4-one], for which, in assay [1], the “EC1.5x for Smn protein expression” value is on record as “**** (an EC1.5x≤0.3 μM is indicated by four stars (****))” and the “maximum fold (Fold) increase” value is listed as “***** (a fold increase >1.65 is indicated by five stars (*****))”. Besides, the EC (1.5-fold increase) in assay [2] was below 0.1 µM.
In the case of `COc1ccc(-c2cc(=O)n3cc(N4CCC(N(C)C)CC4)ccc3c2)cc1F` [Compound 203, 7-[4-(dimethylamino)piperidin-1-yl]-2-(3-fluoro-4-methoxyphenyl)-4H-quinolizin-4-one], the “maximum fold (Fold) increase” value in assay [1] is recorded as “* (A maximum fold increase of ≤1.2 is indicated by one star (*))”. In assay [2], the EC (1.5-fold increase) fell in the range of 1 to 3 µM.
As to `CCc1nc(C)cn2nc(-c3cc(=O)n4cc(OCCN(C)C)ccc4n3)cc12` [Compound 830, 7-[2-(dimethylamino)ethoxy]-2-(4-ethyl-6-methylpyrazolo[1,5-a]pyrazin-2-yl)-4H-pyrido[1,2-a]pyrimidin-4-one], in assay [1], the “EC1.5x for Smn protein expression” value is “*** (an EC1.5× between >0.3 μM and ≤1 μM is indicated by three stars (***))”; the “maximum fold (Fold) increase” value is on record as “***** (a fold increase >1.65 is indicated by five stars (*****))”. In assay [2], the EC (1.5-fold increase) was below 0.1 µM.
In the case of `CCc1nc(C)cn2nc(-c3cc(=O)n4cc(OCCCN5CCOCC5)ccc4n3)cc12` [Compound 833, 2-(4-ethyl-6-methylpyrazolo[1,5-a]pyrazin-2-yl)-7-[3-(morpholin-4-yl)propoxy]-4H-pyrido[1,2-a]pyrimidin-4-one], in assay [1], the “EC1.5x for Smn protein expression” value is “** (an EC1.5× between >1 μM and ≤3 μM is indicated by two stars (**))”; the “maximum fold (Fold) increase” value was “***** (a fold increase >1.65 is indicated by five stars (*****))”. In assay [2], the EC (1.5-fold increase) is below 0.1 µM.
For `CCc1nc(C)cn2nc(-c3cc(=O)n4cc(N(C)CCN(C)C)ccc4n3)cc12` [Compound 825, 7-{[2-(dimethylamino)ethyl](methyl)amino}-2-(4-ethyl-6-methylpyrazolo[1,5-a]pyrazin-2-yl)-4H-pyrido[1,2-a]pyrimidin-4-one], in assay [1], the “EC1.5x for Smn protein expression” value is “** (an EC1.5× between >1 μM and ≤3 μM is indicated by two stars (**))”; the “maximum fold (Fold) increase” value was “***** (a fold increase >1.65 is indicated by five stars (*****))”. Moreover, the EC (1.5-fold increase) in assay [2] was in the range of 0.3 to 1 µM.
Consider `Cc1cn2nc(-c3cc(=O)n4cc(C5=CCN(C6CC6)CC5)cc(C)c4n3)cc2c(C)n1` [Compound 483, 7-(1-cyclopropyl-1,2,3,6-tetrahydropyridin-4-yl)-2-(4,6-dimethylpyrazolo[1,5-a]pyrazin-2-yl)-9-methyl-4H-pyrido[1,2-a]pyrimidin-4-one], for which the “maximum fold (Fold) increase” value in assay [1] is “** (a fold increase between >1.2 and ≤1.35 is indicated by two stars (**))”. In assay [2], the EC (1.5-fold increase) is below 0.1 µM.
For `Cc1cn2nc(-c3cc(=O)n4cc(N5CCNC(C)(C)C5)cc(C)c4n3)cc2c(C)n1` [Compound 544, 7-(3,3-dimethylpiperazin-1-yl)-2-(4,6-dimethylpyrazolo[1,5-a]pyrazin-2-yl)-9-methyl-4H-pyrido[1,2-a]pyrimidin-4-one], in assay [1], the “EC1.5x for Smn protein expression” value is “*** (an EC1.5× between >0.3 μM and ≤1 μM is indicated by three stars (***))”; the “maximum fold (Fold) increase” value is “**** (a fold increase between >1.5 and ≤1.65 is indicated by four stars (****))”. The EC (1.5-fold increase) in assay [2] is below 0.1 µM.
For `CCc1nc(C)cn2nc(-c3cc(=O)n4cc(N5CCN(CC)CC5)cc(C)c4n3)cc12` [Compound 817, 2-(4-ethyl-6-methylpyrazolo[1,5-a]pyrazin-2-yl)-7-(4-ethylpiperazin-1-yl)-9-methyl-4H-pyrido[1,2-a]pyrimidin-4-one], in assay [1], the “EC1.5x for Smn protein expression” value is “**** (an EC1.5x≤0.3 μM is indicated by four stars (****))” and the “maximum fold (Fold) increase” value is listed as “***** (a fold increase >1.65 is indicated by five stars (*****))”. The EC (1.5-fold increase) in assay [2] is below 0.1 µM.
Taken in the same sequence, the figures for `Cn1ncc2cc(-c3cc(=O)n4cc(C5=CCN(CCO)CC5)ccc4n3)ccc21` [Compound 471, 7-[1-(2-hydroxyethyl)-1,2,3,6-tetrahydropyridin-4-yl]-2-(1-methyl-1H-indazol-5-yl)-4H-pyrido[1,2-a]pyrimidin-4-one] were “**** (an EC1.5x≤0.3 μM is indicated by four stars (****))”, “***** (a fold increase >1.65 is indicated by five stars (*****))” and below 0.1 µM.
For the compound `Cc1cn2cc(-c3cc(=O)n4cc(N5CCN(CCO)CC5)ccc4n3)cc(F)c2n1` [Compound 801, 2-(8-fluoro-2-methylimidazo[1,2-a]pyridin-6-yl)-7-[4-(2-hydroxyethyl)piperazin-1-yl]-4H-pyrido[1,2-a]pyrimidin-4-one], in assay [1], the “EC1.5x for Smn protein expression” value is “*** (an EC1.5× between >0.3 μM and ≤1 μM is indicated by three stars (***))”; the “maximum fold (Fold) increase” value was “***** (a fold increase >1.65 is indicated by five stars (*****))”. Besides, the EC (1.5-fold increase) in assay [2] lay within 0.1 to 0.3 µM.
With `Cc1cn2cc(-c3cc(=O)n4cc(N5CCC(N)CC5)ccc4n3)cc(F)c2n1` [Compound 273, 7-(4-aminopiperidin-1-yl)-2-(8-fluoro-2-methylimidazo[1,2-a]pyridin-6-yl)-4H-pyrido[1,2-a]pyrimidin-4-one], in assay [1], the “EC1.5x for Smn protein expression” value was “**** (an EC1.5x≤0.3 μM is indicated by four stars (****))” and the “maximum fold (Fold) increase” value is “***** (a fold increase >1.65 is indicated by five stars (*****))”. Besides, the EC (1.5-fold increase) in assay [2] is below 0.1 µM.
